# Assay results published in US6693112B2, “Compounds for enhancing chemotherapy” (The Pennsylvania State University, priority 2000, dated 2004).
# Where “and” joins values, the source holds several entries; their conditions need not be identical. Equal values may be shown once. Read-outs that look alike come from different tables or passages of the source.
# Legend:
# [1] = tested on: T24 cells; assay: Drug cytotoxicity with or without 10 μM modulator, T24 cells (Table V)
# [2] = tested on: A498 cells; assay: Drug cytotoxicity with or without 10 μM modulator, A498 cells (Table V)
# [3] = tested on: MCF-7 cells; assay: Drug cytotoxicity with or without 10 μM modulator, MCF-7 cells (Table V)
# [4] = tested on: NCI/ADR cells; assay: Drug cytotoxicity with or without 10 μM modulator, NCI/ADR cells (Table V); details: for IC50: read-out: IC50 (EtOH)
# [5] = tested on: P388/ADR cells; assay: Drug cytotoxicity with or without 10 μM modulator, P388/ADR cells (Table V); details: for IC50: read-out: IC50 (EtOH)
# [6] = tested on: MCF7/VP cells; assay: Drug cytotoxicity with or without 10 μM modulator, MCF7/VP (MRP1) cells (Table V); details: for IC50: read-out: IC50 (EtOH)
# [7] = tested on: MCF-7 cells; assay: Cytotoxicity toward drug-sensitive MCF-7 cells (sulforhodamine B binding assay); format: cell-based, human; details: for Toxicity: percent of MCF-7 cells killed by 10 μ/ml of the compound
# [8] = biological target: P-gp (Homo sapiens, UniProt P08183); details: for Pgp Antagonism: NCI/ADR cells, % survival with compound alone / with compound + 50 nM vinblastine
# Chain of P-gp (P08183 whole entry): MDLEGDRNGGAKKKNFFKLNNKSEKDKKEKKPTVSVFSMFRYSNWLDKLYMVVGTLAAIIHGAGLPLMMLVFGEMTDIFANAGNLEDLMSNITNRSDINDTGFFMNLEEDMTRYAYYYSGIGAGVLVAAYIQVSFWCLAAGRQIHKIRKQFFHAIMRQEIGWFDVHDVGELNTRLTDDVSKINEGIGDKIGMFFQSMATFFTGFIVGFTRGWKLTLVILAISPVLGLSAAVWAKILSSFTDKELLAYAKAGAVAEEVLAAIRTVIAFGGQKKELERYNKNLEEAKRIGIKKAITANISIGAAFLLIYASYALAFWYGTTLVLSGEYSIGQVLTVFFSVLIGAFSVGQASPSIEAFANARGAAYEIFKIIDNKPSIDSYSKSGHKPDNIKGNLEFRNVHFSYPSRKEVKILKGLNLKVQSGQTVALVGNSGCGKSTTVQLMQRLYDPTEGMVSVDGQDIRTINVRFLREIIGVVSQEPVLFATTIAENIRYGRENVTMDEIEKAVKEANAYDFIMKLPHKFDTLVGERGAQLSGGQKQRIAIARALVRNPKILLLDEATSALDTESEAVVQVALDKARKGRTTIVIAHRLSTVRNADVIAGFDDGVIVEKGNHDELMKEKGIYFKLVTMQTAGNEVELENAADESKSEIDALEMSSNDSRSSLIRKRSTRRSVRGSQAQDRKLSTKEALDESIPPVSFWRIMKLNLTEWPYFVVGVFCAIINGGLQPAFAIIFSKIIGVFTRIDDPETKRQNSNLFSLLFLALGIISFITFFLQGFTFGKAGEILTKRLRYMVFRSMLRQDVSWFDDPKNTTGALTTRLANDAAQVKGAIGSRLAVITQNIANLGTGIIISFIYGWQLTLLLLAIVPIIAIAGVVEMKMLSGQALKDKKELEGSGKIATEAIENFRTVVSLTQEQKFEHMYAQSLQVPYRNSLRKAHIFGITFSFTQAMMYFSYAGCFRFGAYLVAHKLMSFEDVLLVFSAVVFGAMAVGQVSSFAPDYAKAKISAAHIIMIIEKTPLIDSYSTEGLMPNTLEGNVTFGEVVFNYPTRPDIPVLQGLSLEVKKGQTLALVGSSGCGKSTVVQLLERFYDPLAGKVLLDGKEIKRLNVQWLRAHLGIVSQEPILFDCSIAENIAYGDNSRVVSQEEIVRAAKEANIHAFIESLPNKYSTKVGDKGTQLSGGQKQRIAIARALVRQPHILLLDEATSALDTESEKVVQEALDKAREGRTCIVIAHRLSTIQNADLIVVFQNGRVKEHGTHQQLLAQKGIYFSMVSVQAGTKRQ
# Experimental: The percentage of cells that died following treatment was calculated as a percent decrease in sulforhodamine B binding as compared with control cultures. […] Inhibition of P-gp was manifested as the ability of the compound to enhance the cytotoxicity of vinblastine toward NCI/ADR cells. To assess the toxicity of the compounds toward drug-sensitive cells, the effects of the compounds on the growth of drug-sensitive MCF-7 cells were determined using the same methods.
# The P-gp antagonism score was calculated by dividing the percent survival of NCI/ADR cells treated with the compound alone by the percent survival of NCI/ADR cells treated with the compound in the presence of 50 nM vinblastine. Chemosensitization is indicated by a score of more than 1.0.
# The P-gp antagonism score was calculated by dividing the percent survival of NCI/ADR cells treated with […] by the percent survival of NCI/ADR cells treated with the compound in the presence of 50 nM vinblastine.
# [9] = biological target: T1, MRP (Homo sapiens, UniProt P33527); assay: Reversal of MRP-mediated MDR: enhancement of vincristine cytotoxicity toward MCF-7/VP cells; format: cell-based; details: % survival with compound alone / with compound + 1 nM vincristine
# T1 construct: MCF-7/VP cells, a cell line that expresses MRP; endogenous in cells; host or cells: MCF-7/VP cells
# T1 sequence (P33527 whole entry): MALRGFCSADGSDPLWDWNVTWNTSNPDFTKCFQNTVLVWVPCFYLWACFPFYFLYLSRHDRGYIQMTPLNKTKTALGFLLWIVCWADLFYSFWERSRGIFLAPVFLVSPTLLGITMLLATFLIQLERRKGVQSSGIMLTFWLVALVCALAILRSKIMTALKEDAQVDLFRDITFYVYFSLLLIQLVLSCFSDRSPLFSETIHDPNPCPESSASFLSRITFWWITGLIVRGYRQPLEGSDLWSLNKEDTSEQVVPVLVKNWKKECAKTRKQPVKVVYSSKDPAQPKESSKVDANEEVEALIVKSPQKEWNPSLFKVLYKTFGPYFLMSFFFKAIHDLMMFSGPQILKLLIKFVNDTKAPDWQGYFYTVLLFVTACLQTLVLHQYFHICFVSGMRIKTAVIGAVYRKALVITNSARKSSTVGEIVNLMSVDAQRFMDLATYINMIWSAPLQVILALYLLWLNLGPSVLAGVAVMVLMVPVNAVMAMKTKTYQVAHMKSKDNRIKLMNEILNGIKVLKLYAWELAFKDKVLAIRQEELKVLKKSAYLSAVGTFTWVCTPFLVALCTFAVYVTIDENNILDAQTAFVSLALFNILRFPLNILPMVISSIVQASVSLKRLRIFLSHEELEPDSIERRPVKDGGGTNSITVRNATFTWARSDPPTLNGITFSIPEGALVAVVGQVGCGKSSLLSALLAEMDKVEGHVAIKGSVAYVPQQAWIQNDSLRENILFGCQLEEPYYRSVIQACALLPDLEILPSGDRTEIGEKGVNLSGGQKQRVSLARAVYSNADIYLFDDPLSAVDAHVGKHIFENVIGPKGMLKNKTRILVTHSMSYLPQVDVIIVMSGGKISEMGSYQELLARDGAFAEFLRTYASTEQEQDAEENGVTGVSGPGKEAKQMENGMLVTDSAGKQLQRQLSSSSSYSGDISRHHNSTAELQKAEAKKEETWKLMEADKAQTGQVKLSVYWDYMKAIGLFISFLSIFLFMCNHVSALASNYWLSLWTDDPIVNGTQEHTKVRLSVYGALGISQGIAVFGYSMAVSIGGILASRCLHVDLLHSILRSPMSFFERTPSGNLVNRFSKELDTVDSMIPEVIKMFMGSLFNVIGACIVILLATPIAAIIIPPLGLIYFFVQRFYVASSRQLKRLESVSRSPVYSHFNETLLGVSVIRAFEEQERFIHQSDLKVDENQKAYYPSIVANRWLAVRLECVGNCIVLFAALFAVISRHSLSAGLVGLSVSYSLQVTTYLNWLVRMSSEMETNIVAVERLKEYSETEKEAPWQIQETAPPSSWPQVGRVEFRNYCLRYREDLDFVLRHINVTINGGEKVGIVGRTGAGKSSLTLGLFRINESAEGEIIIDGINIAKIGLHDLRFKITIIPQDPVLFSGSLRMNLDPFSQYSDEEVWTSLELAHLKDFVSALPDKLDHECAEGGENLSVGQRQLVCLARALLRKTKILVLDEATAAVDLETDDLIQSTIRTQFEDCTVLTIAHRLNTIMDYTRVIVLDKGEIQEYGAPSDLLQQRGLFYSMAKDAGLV
# Experimental: Reversal of MRP-mediated MDR was examined by plating MCF-7/VP cells as described above and exposing the cells to varying concentrations of phenoxymethylquinoxalinone compounds in the absence or presence of 1 nM vincristine for 48 hours. Cell survival was assayed as described above. The percentage of cells that died following treatment was calculated as described above. Inhibition of MRP was manifested as the ability of the compound to enhance the cytotoxicity of vincristine toward MCF-7/VP cells.
# Chemosensitization is indicated by a score greater than 1.0.
# Chemosensitization is indicated by a score greater than 1.0. […]
# [10] = tested on: NCI/ADR cells; assay: Accumulation of [3H]Taxol and [3H]vinblastine by NCI/ADR cells; format: cell-based
# [11] = tested on: MCF-7 cells; assay: Accumulation of [3H]Taxol and [3H]vinblastine by MCF-7 cells; format: cell-based, human
# [12] = tested on: MCF-7/VP cells; assay: Accumulation of [3H]Taxol and [3H]vinblastine by MCF-7/VP cells; format: cell-based
# [13] = Homo sapiens, T-24, read-out: IC50 (EtOH)
# [14] = Homo sapiens, A498, read-out: IC50 (EtOH)
# [15] = Homo sapiens, MCF7, read-out: IC50 (EtOH)
# [16] = T24 cells, IC50 in the absence / in the presence of 10 μM of verapamil or Compound 4008
# [17] = A498 cells, IC50 in the absence / in the presence of 10 μM of verapamil or Compound 4008
# [18] = MCF-7 cells, IC50 in the absence / in the presence of 10 μM of verapamil or Compound 4008
# [19] = NCI/ADR cells, IC50 in the absence / in the presence of 10 μM of verapamil or Compound 4008
# [20] = P388/ADR cells, IC50 in the absence / in the presence of 10 μM of verapamil or Compound 4008
# [21] = MCF7/VP (MRP1) cells, IC50 in the absence / in the presence of 10 μM of verapamil or Compound 4008
smiles,measurement,setting,value
"O=c1[nH]cc(F)c(=O)[nH]1 [5-Fluorouracil, 5-fluorouracil, reference compound]",IC50,[1]; [13],77000 ± 20000 nM
same,IC50,[2]; [14],9000 ± 2100 nM
same,IC50,[3]; [15],49000 ± 31000 nM
same,IC50,"[4]; Homo sapiens, NCI/ADR-RES",181000 ± 84000 nM
same,IC50,"[5]; Mus musculus, P388/ADR",220 ± 40 nM
same,IC50,"[6]; Homo sapiens, MCF7-VP",11000 ± 1000 nM
"N.N.[Cl][Pt][Cl] [Cisplatin, cisplatin, reference compound]",IC50,"[1]; read-out: IC50 (EtOH), T24 cells, drug alone, EtOH solvent control, no modulator",6700 ± 1100 nM
same,IC50,"[2]; read-out: IC50 (EtOH), A498 cells, drug alone, EtOH solvent control, no modulator",4600 ± 1000 nM
same,IC50,"[3]; read-out: IC50 (EtOH), MCF-7 cells, drug alone, EtOH solvent control, no modulator",16000 ± 5000 nM
same,IC50,"[4]; NCI/ADR cells, drug alone, EtOH solvent control, no modulator",7000 ± 900 nM
same,IC50,"[5]; P388/ADR cells, drug alone, EtOH solvent control, no modulator",2100 ± 800 nM
same,IC50,"[6]; MCF7/VP (MRP1) cells, drug alone, EtOH solvent control, no modulator",8500 ± 2100 nM
O=C(Nc1c2c(nc3ccccc13)N(Cc1cccc(Cl)c1)CC2)C12CC3CC(CC(C3)C1)C2 [Compound 52],Toxicity,[7],33%
same,Pgp Antagonism,[8],1.2
same,MRP Antagonism,[9],1.2
Nc1c2c(nc3ccccc13)N(Cc1ccccc1)CC2 [Compound 53],Toxicity,[7],47%
same,Pgp Antagonism,[8],3.1
same,MRP Antagonism,[9],1.0
CC(C)NCC(=O)Nc1c2c(nc3ccccc13)N(Cc1ccccc1)CC2 [Compound 59],Toxicity,[7],45%
same,Pgp Antagonism,[8],13.0
same,MRP Antagonism,[9],0.99
CCN(CC)CC(=O)Nc1c2c(nc3ccccc13)N(Cc1ccccc1)CC2 [Compound 61],Toxicity,[7],14%
same,Pgp Antagonism,[8],14.8
same,MRP Antagonism,[9],0.98
O=C(CN1CCCCC1)Nc1c2c(nc3ccccc13)N(Cc1ccccc1)CC2 [Compound 62],Toxicity,[7],0%
same,Pgp Antagonism,[8],17.8
same,MRP Antagonism,[9],1.1 and 1.09
CN1CCN(CC(=O)Nc2c3c(nc4ccccc24)N(Cc2ccccc2)CC3)CC1 [Compound 63],Toxicity,[7],21%
same,Pgp Antagonism,[8],7.5
same,MRP Antagonism,[9],1.07
CC(C)(C)c1cc(CCC(=O)Nc2c3c(nc4ccccc24)N(Cc2ccccc2)CC3)cc(C(C)(C)C)c1O [Compound 64],Toxicity,[7],50%
same,Pgp Antagonism,[8],13.2
same,MRP Antagonism,[9],1.15
O=C(Cc1ccccc1)Nc1c2c(nc3ccccc13)N(Cc1ccccc1)CC2 [Compound 4008],Toxicity IC50,"[7]; MCF-7 cells, concentration required to kill 50% of the cells",5 µg/mL
same,Maximum Antagonism,[8],17.1 (3.1)
same,Maximum Antagonism (conc. μg/ml),[8],17.1 (3.1) μg/ml
same,therapeutic index,[8],at least 10 fold
same,accumulation of [3H]Taxol and [3H]vinblastine,[10],increases the accumulation
same,accumulation of [3H]Taxol and [3H]vinblastine,[11],without affecting the accumulation
same,accumulation of [3H]Taxol and [3H]vinblastine,[12],without affecting the accumulation
same,"RI, 5-Fluorouracil",[1]; [16],2.6
same,"RI, Cisplatin",[1]; [16],1.1
same,"RI, Taxol",[1]; [16],1.2
same,"RI, Vinblastine",[1]; [16],3.8
same,"RI, Vincristine",[1]; [16],1.5
same,"RI, 5-Fluorouracil",[2]; [17],0.7
same,"RI, Cisplatin",[2]; [17],0.8
same,"RI, Taxol",[2]; [17],6.8
same,"RI, Vinblastine",[2]; [17],18
same,"RI, Vincristine",[2]; [17],18
same,"RI, 5-Fluorouracil",[3]; [18],1.6
same,"RI, Cisplatin",[3]; [18],0.8
same,"RI, Taxol",[3]; [18],0.9
same,"RI, Vinblastine",[3]; [18],1.8
same,"RI, Vincristine",[3]; [18],0.9
same,"RI, 5-Fluorouracil",[4]; [19],1.0
same,"RI, Cisplatin",[4]; [19],1.2
same,"RI, Taxol",[4]; [19],70
same,"RI, Vinblastine",[4]; [19],35
same,"RI, Vincristine",[4]; [19],18
same,"RI, 5-Fluorouracil",[5]; [20],0.7
same,"RI, Cisplatin",[5]; [20],1.9
same,"RI, Doxorubicin",[5]; [20],200
same,"RI, Taxol",[5]; [20],202
same,"RI, Vinblastine",[5]; [20],63
same,"RI, Vincristine",[5]; [20],30
same,"RI, 5-Fluorouracil",[6]; [21],0.7
same,"RI, Cisplatin",[6]; [21],0.8
same,"RI, Taxol",[6]; [21],0.8
same,"RI, Vinblastine",[6]; [21],1.3
same,"RI, Vincristine",[6]; [21],1.0
same,enhancement of the toxicity of vincristine toward MCF7/VP cells,[6]; MRP1-overexpressing MCF7/VP cells,no effect
"COc1cccc2c1C(=O)c1c(O)c3c(c(O)c1C2=O)C[C@@](O)(C(=O)CO)C[C@@H]3O[C@H]1C[C@H](N)[C@H](O)[C@H](C)O1 [Doxorubicin, reference compound]",IC50,"[5]; Mus musculus, P388/ADR",26700 ± 10600 nM
"CC(=O)O[C@H]1C(=O)[C@@]2(C)[C@H]([C@H](OC(=O)c3ccccc3)[C@]3(O)C[C@H](OC(=O)[C@H](O)[C@@H](NC(=O)c4ccccc4)c4ccccc4)C(C)=C1C3(C)C)[C@]1(OC(C)=O)CO[C@@H]1C[C@@H]2O [Taxol, reference compound]",IC50,[1]; [13],4.7 ± 0.5 nM
same,IC50,[2]; [14],49 ± 21 nM
same,IC50,[3]; [15],1.6 ± 0.3 nM
same,IC50,"[4]; Homo sapiens, NCI/ADR-RES",2020 ± 810 nM
same,IC50,"[5]; Mus musculus, P388/ADR",1650 ± 470 nM
same,IC50,"[6]; Homo sapiens, MCF7-VP",1.8 ± 0.4 nM
"CC[C@]1(O)C[C@@H]2CN(CCc3c([nH]c4ccccc34)[C@@](C(=O)OC)(c3cc4c(cc3OC)N(C)[C@H]3[C@@](O)(C(=O)OC)[C@H](OC(C)=O)[C@]5(CC)C=CCN6CC[C@]43[C@@H]65)C2)C1 [Vinblastine, vinblastine, reference compound]",IC50,[1]; [13],1.3 ± 0.3 nM
same,IC50,[2]; [14],7.6 ± 2.6 nM
same,IC50,[3]; [15],0.4 ± 0.1 nM
same,IC50,"[4]; Homo sapiens, NCI/ADR-RES",110 ± 17 nM
same,IC50,"[5]; Mus musculus, P388/ADR",28 ± 5 nM
same,IC50,"[6]; Homo sapiens, MCF7-VP",0.6 ± 0.1 nM
"CC[C@]1(O)C[C@H]2CN(CCc3c([nH]c4ccccc34)[C@@](C(=O)OC)(c3cc4c(cc3OC)N(C=O)[C@H]3[C@@](O)(C(=O)OC)[C@H](OC(C)=O)[C@]5(CC)C=CCN6CC[C@]43[C@@H]65)C2)C1 [Vincristine, vincristine, reference compound]",IC50,[1]; [13],4.8 ± 0.2 nM
same,IC50,[2]; [14],62 ± 11 nM
same,IC50,[3]; [15],0.6 ± 0.1 nM
same,IC50,"[4]; Homo sapiens, NCI/ADR-RES",183 ± 14 nM
same,IC50,"[5]; Mus musculus, P388/ADR",150 ± 24 nM
same,IC50,"[6]; Homo sapiens, MCF7-VP",7.5 ± 1.1 nM
